Measured values: publication PMC9775191, “A Subset Screen of the Compounds Australia Scaffold Library Identifies 7-Acylaminodibenzoxazepinones as Potent and Selective Hits for Anti-Giardia Drug Discovery” (Biomedicines, 2022)

system: G. duodenalis BRIS/91/HEPU/1279; assay: Primary Giardia screen at 10 µM (live-cell imaging, automated counting); format: cell-based, Giardia duodenalis; conditions: 24 h
Method in brief: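 Singlicate, 10 μM final, 0.2% DMSO; sealed chambers, 3% O2/5% CO2/N2. Counts by live-cell imaging at 24 h and 48 h. % growth vs vehicle, media background subtracted; Z' per plate.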

Row | Structure (SMILES) | Average % Inhibition 24h
1 | CCCNC(=O)N1CCN(c2nc3ccccc3n3cccc23)CC1 [SN00793136] | 3.9%
2 | COc1ccc(Nc2cc(C)nc(N3CCN(C(=O)c4ccccc4)CC3)n2)cc1 [SN00793485] | 5.5%

same assay, conditions: 24 h, first singlicate assay

Row | Structure (SMILES) | % Inhibition n=1 24h
3 | CCCNC(=O)N1CCN(c2nc3ccccc3n3cccc23)CC1 [SN00793136] | 7.8%
4 | COc1ccc(Nc2cc(C)nc(N3CCN(C(=O)c4ccccc4)CC3)n2)cc1 [SN00793485] | 11.1%

same assay, conditions: 24 h, re-assessment

Row | Structure (SMILES) | % Inhibition n=2 24h
5 | CCCNC(=O)N1CCN(c2nc3ccccc3n3cccc23)CC1 [SN00793136] | 0.0%
6 | COc1ccc(Nc2cc(C)nc(N3CCN(C(=O)c4ccccc4)CC3)n2)cc1 [SN00793485] | 0.0%

same assay, conditions: 48 h

Row | Structure (SMILES) | Average % Inhibition 48h
7 | CCCNC(=O)N1CCN(c2nc3ccccc3n3cccc23)CC1 [SN00793136] | 22.4%
8 | COc1ccc(Nc2cc(C)nc(N3CCN(C(=O)c4ccccc4)CC3)n2)cc1 [SN00793485] | 29.3%

same assay, conditions: 48 h, first singlicate assay

Row | Structure (SMILES) | % Inhibition n=1 48h
9 | Cc1ccc(NC(=O)Cn2c(C)cc(C)c(-c3nc(-c4ccc5c(c4)OCO5)no3)c2=O)cc1 [SN00792912] | 3.6%
10 | COc1ccccc1-c1cc(C(=O)Nc2sc(Nc3ccccc3)nc2C(N)=O)[nH]n1 [SN00792956] | 11.1%
11 | CCn1c(=O)c(=O)n(CC(=O)NCc2ccc(SC)cc2)c2ccccc21 [SN00792977] | 16.0%
12 | O=C(Cn1c(=O)c(=O)n(Cc2ccccc2)c2ccccc21)NCCCN1CCCC1 [SN00792985] | 20.3%
13 | COc1ccc(NC(=O)N2CCC3(CC2)Nc2cc(C)ccc2-n2cccc23)cc1 [SN00793004] | 10.6%
14 | CCc1ccc(C2=Nc3ncnn3/C2=N/Cc2ccc(F)cc2)cc1 [SN00793051] | 1.3%
15 | CC(C)c1ccc(-c2noc(N3CCC(C(=O)N4CCN(C5CCCCC5)CC4)CC3)n2)cc1 [SN00793072] | 11.6%
16 | CCCNC(=O)N1CCN(c2nc3ccccc3n3cccc23)CC1 [SN00793136] | 44.8%
17 | Cc1c(C(=O)O)sc2ncnc(NC3CCCCCC3)c12 [SN00793181] | 3.6%
18 | Cc1sc2ncn(CC3CCCO3)c(=O)c2c1C(=O)Nc1ccc(S(N)(=O)=O)nc1 (stereo not shown) [SN00793191] | 0.0%
19 | COc1ccc(-c2cc3c(=O)n(Cc4cccc(F)c4)ccn3n2)cc1 [SN00793208] | 0.0%
20 | COc1cccc(Cn2c(CNC(=O)CCc3c(C)noc3C)nc3cccnc32)c1 [SN00793247] | 17.5%
21 | CC(C)CC(=O)NCc1nc2cccnc2n1Cc1ccc(F)cc1 [SN00793251] | 8.4%
22 | Cc1cccc(Cn2c(CNS(=O)(=O)c3ccccc3)nc3cccnc32)c1 [SN00793267] | 9.9%
23 | Cc1nc(-c2ccc(C(=O)N3CCCC3C(=O)Nc3ccc(C(C)C)cc3)cc2)no1 (stereo not shown) [SN00793315] | 0.0%
24 | Cc1nc(-c2ccc(C(=O)N3CCCC3C(=O)Nc3ccc(C)c(Cl)c3)cc2)no1 (stereo not shown) [SN00793320] | 16.2%
25 | CC(=O)N1CCCc2cc(S(=O)(=O)N3CCN(c4ccc(F)cc4)CC3)ccc21 [SN00793330] | 0.2%
26 | O=C(C1CCC1)N1CCCc2cc(S(=O)(=O)Nc3ccccc3)ccc21 [SN00793348] | 0.0%
27 | Cc1ccc(-c2nc3ncccn3c2NC(=O)c2ccc(C(F)(F)F)cc2)cc1 [SN00793355] | 13.4%

Row | Structure (SMILES) | % Inhibition n=1 48h
28 | Cc1nc(S(=O)(=O)c2ccc(Br)cc2)c(NCc2ccccc2)o1 [SN00793357] | 27.4%
29 | COc1ccc(Nc2cc(C)nc(N3CCN(C(=O)c4ccccc4)CC3)n2)cc1 [SN00793485] | 58.6%
30 | Cc1cccc(NC(=O)N2CCN(c3nc(C)cc(N4CCN(C)CC4)n3)CC2)c1 [SN00793530] | 17.4%
31 | COc1ccc(C(C)(C)C)cc1S(=O)(=O)N1CCN(c2nc(C)cc(N3CCOCC3)n2)CC1 [SN00793559] | 5.9%
32 | COc1cccc(CNC(=O)Cn2nc(C(=O)Nc3ccccc3)ccc2=O)c1 [SN00793567] | 4.7%
33 | Cc1ccc(NC(=O)c2ccc(=O)n(CCN3CCOCC3)n2)cc1 [SN00793573] | 2.3%
34 | O=C(NCc1ccc2c(c1)CCN2C(=O)c1ccccc1)C1CCN(S(=O)(=O)N2CCCC2)CC1 [SN00793589] | 7.9%
35 | O=C(NCc1ccc2c(c1)CCN2C(=O)c1ccccc1)c1n[nH]c2c1CCc1ccccc1-2 [SN00793591] | 5.7%
36 | CC(C)OCCCNC(=O)Cn1c(=O)c(=O)n(Cc2ccncc2)c2ncccc21 [SN00793629] | 13.1%
37 | Cc1nc(N2CCCC2)c2c(C)c(C(=O)Nc3ccccc3Cl)sc2n1 [SN00793643] | 49.2%
38 | Cn1cnc2cc(-c3noc(C4CCCO4)n3)ccc21 (stereo not shown) [SN00793699] | 22.8%
39 | CCc1cc(C2CCCN2C(=O)c2cnn3c(C(F)(F)F)cc(-c4cccs4)nc23)on1 (stereo not shown) [SN00793821] | 1.7%
40 | CCc1cc(C2CCCN2C(=O)Cc2ccccc2F)on1 (stereo not shown) [SN00793836] | 10.7%
41 | CCc1onc(C)c1C1CCCN1C(=O)c1ccc2c(c1)OCO2 (stereo not shown) [SN00793852] | 6.6%
42 | O=[N+]([O-])c1ccc(S(=O)(=O)N2CCCCCC2c2cccs2)cc1 (stereo not shown) [SN00793856] | 39.9%
43 | O=[N+]([O-])c1cccc(S(=O)(=O)N2CCCCCC2c2cccs2)c1 (stereo not shown) [SN00793864] | 25.8%
44 | CCc1onc(C)c1C1CCCN1S(=O)(=O)c1ccc(CC(C)C)cc1 (stereo not shown) [SN00793887] | 26.3%
45 | CCCOc1ccc(CN2CCCC2c2c(C)noc2C)cc1 (stereo not shown) [SN00793908] | 16.7%
46 | Cc1cc(C2CCCN2Cc2sccc2C)on1 (stereo not shown) [SN00793909] | 2.5%

Row | Structure (SMILES) | % Inhibition n=1 48h
47 | CCOC(=O)c1ccc(Nc2c(-c3ccccc3)nc3[nH]cnn23)cc1 [SN00794007] | 0.0%
48 | Cc1nnc2sc(-c3ccc(CNC(=O)c4cccc(Br)c4)cc3)nn12 [SN00794033] | 41.7%
49 | CCc1nnc2sc(-c3ccc(CNC(=O)c4ccc(Br)o4)cc3)nn12 [SN00794046] | 48.2%
50 | Cc1cc(C)c2c(=O)n(CC(=O)Nc3ccc(Br)cc3)c(=O)n(C)c2n1 [SN00794110] | 0.0%
51 | COC(=O)c1cn(CC(=O)NCc2cc3c(cc2C)OCCCO3)c2ccccc12 [SN00794141] | 14.4%
52 | CNC1(c2nnnn2-c2ccc(OC)cc2)CCCCC1 [SN00794158] | 11.8%
53 | COc1ccc(-n2nnnc2C2(N3CCOCC3)CCCCC2)cc1 [SN00794159] | 0.0%
54 | O=C(c1ccc(F)cc1)N1CCCN(Cc2noc(-c3ccccc3)n2)CC1 [SN00794182] | 33.4%
55 | CCCn1nnc(NCc2ccc(OCc3ccccc3)cc2)n1 [SN00794214] | 16.1%
56 | CCCNC1=C(C(=O)Nc2ccc(F)cc2)S(=O)(=O)c2ccccc21 [SN00794224] | 46.5%
57 | O=C(c1nc2nc(-c3ccco3)cc(C(F)(F)F)n2n1)N1CCCCCC1 [SN00794256] | 19.8%
58 | O=C(Nc1ccc(F)cc1)c1nc2nc(-c3cccs3)cc(C(F)(F)F)n2n1 [SN00794266] | 18.7%
59 | CNc1nc(C(N)=O)c(NC(=O)c2ccc(OC)cc2)s1 [SN00794269] | 25.8%
60 | CSc1ccccc1NC(=O)C1CCN(S(C)(=O)=O)c2ccccc2O1 (stereo not shown) [SN00794287] | 8.2%
61 | COc1ccccc1NC(=O)c1cn2c3c(cc(Br)cc3c1=O)CC2 [SN00794326] | 11.4%
62 | COC(=O)c1c(NC(=O)Cn2nc(C(F)(F)F)c(Br)c2C)sc2c1CCCC2 [SN00794352] | 23.2%
63 | Cc1cccc(NC(=O)Cn2c(=O)n(-c3ccc(F)cc3)c(=O)c3c(C)c(C(=O)N(C)C)sc32)c1 [SN00794395] | 21.9%
64 | CCCNc1ncnc2c1cnn2-c1ccc(C)cc1 [SN00794411] | 0.0%
65 | Cc1ccc(Cl)cc1-n1ncc2c(NCCO)ncnc21 [SN00794417] | 8.1%

same assay, conditions: 48 h, re-assessment

Row | Structure (SMILES) | % Inhibition n=2 48h
66 | CCCNC(=O)N1CCN(c2nc3ccccc3n3cccc23)CC1 [SN00793136] | 0.0%
67 | COc1ccc(Nc2cc(C)nc(N3CCN(C(=O)c4ccccc4)CC3)n2)cc1 [SN00793485] | 0.0%
